Consider one substance from patent US12216121B2, “Methods and compositions for spacial and temporal measurement of catalytic activity” (The University of Chicago, priority 2017, dated 2025).

A short description of this test: Specificity of reporter dye (compound 8) towards metal ions and amino acids. To be noted: 1 mM metal ions, 5 mM H2O2 and amino acids, phosphate buffer pH 7.2; all tested except cysteine. The method, then: FIG. 5C illustrates the sensitivity of sensing dye, (compound 8) in presence of different analyte such as 1. Phosphate buffer (pH=7.2), 1 mM of 2. Na+, 3. K+, 4. Ca2+, 5. Fe2+, 6. Zn2+, and 5 mM of 7. H2O2, 8. His, 9. Ser, 10. Lys, 11. Val, and 12. Cys. Each intensity is normalized from the intensity of compound 8 before treatment with respective analytes.
The specificity of reporter dye was checked towards thiol disulfide exchange reaction and treated the reporter dye (compound 8) with different metal ions and amino acids.

Turning to “thiopyridyl conjugated blocked 6′-O propargyl fluorescein [compound 8]”, the “reaction with metal ions and amino acids (fluorescence)” value is “No reaction was observed”.
